Measurements as given in patent publication US20240262842A1, “SMALL MOLECULE INHIBITORS OF KRAS G12C MUTANT” (Merck Sharp & Dohme LLC, priority 2021, published 2024).
Where two headings read alike, the source gives them in different places.

How the values were obtained:
MIA PaCa-2 cells = assay: Growth inhibition activity on KRAS-G12C mutant cell line (CellTiter-Glo 3D); type: cell-based, human; conditions: MIA PaCa-2, 3-day culture with compound
Method in brief: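 MIA PaCa-2 cells in RPMI1640 with 10% FBS, U-bottom wells, cultured 1 day before compound (0.2% DMSO final), then 3 days at 37 °C, 5% CO2. Viability by CellTiter-Glo 3D luminescence; growth inhibition versus untreated wells gives IC50 (nM).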

[1] = molecular target: T1, interaction between GMPPNP-bound recombinant K-Ras4B G12C mutant protein and cRAF RAS-binding domain (cRAF-RBD) (Homo sapiens, UniProt P01116, G12C); assay: Inhibitory activity on interaction between KRAS G12C and cRAF (Alpha technology)
T1 construct: His-tag (N)
Method in brief: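 His-tagged K-Ras4B G12C (aa 1-169), GMPPNP-loaded, preincubated with compound 1 h at 25° C in pH 7.5 Tris buffer with MgCl2, TCEP, Tween 20. cRAF-RBD (aa 50-132) and Alpha reagents then added for 1.5 h; Alpha signal normalised to DMSO (0%) and GDP-bound KRAS (100%); IC50 from dose titration.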

[2] = GMPPNP-bound KRAS G12C incubated with compound 25° C. 1 hour, Table 2, read-out: IC50
[3] = Homo sapiens, MIA PaCa-2, 72 h, Table 3-1
[4] = GMPPNP-bound KRAS G12C incubated with compound 25° C. 1 hour, Table 2-1, read-out: IC50
[5] = IC50, GMPPNP-bound KRAS G12C incubated with compound 25° C. 1 hour, Table 2-1

T1 sequence (P01116 with tags, fused parts or gaps isoform P01116-2 G12C): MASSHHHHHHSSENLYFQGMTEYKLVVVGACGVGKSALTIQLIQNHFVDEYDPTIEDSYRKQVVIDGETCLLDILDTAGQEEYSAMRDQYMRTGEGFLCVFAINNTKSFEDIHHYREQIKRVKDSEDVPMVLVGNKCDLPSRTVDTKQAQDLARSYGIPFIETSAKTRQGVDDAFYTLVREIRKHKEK

For `CO[C@H]1CC[C@H](NC/C=C/C(=O)Nc2c(F)cc(C(=O)c3cc4c5c(cccn35)-c3c(C(F)(F)F)cc5c(nc(C)n5C)c3OCC4)cc2F)CC1` (single isomer, unassigned) [Example 30-1, (E)-N-(4-(9,10-dimethyl-7-(trifluoromethyl)-13,14-dihydro-9H-imidazo[4″,5″:5′,6′]benzo[1′,2′:2,3]oxocino[4,5,6-hi]indolizine-2-carbonyl)-2,6-difluorophenyl)-4-(((1r,4r)-4-methoxycyclohexyl)amino)but-2-enamide], the IC50 (MIA PaCa-2 cells; Table 3) was 3 nM and the IC50 [1, 2] was 7 nM.

`COC[C@@H]1CCN1C/C=C/C(=O)Nc1c(F)cc(C(=O)c2cc3c4c(cccn24)-c2c(C(F)(F)F)cc4c(ncn4C)c2OCC3)cc1F` [Example 169, (S,E)-N-(2,6-difluoro-4-(9-methyl-7-(trifluoro-methyl)-13,14-dihydro-9H-imidazo[4″,5″:5′,6′]-benzo[1′,2′:2,3]oxocino-[4,5,6-hi]indolizine-2-carbonyl)phenyl)-4-(2-(methoxymethyl)azetidin-1-yl)but-2-enamide] showed an IC50 (MIA PaCa-2 cells; [3]) of 15 nM and an IC50 [1, 4] of 59.6 nM.

Compound `Cn1cnc2c3c(c(C(F)(F)F)cc21)-c1cccn2c(C(=O)c4cc(F)c(NC(=O)/C=C/CN5C6CCC5COC6)c(F)c4)cc(c12)CCO3` [Example 197] has an IC50 (MIA PaCa-2 cells; [3]) of 10.9 nM and an IC50 [1, 4] of 11.7 nM.

Work on `Cn1cnc2c3c(c(C(F)(F)F)cc21)-c1cccn2c(C(=O)c4cc(F)c(NC(=O)/C=C/CN5[C@@H]6CC[C@H]5[C@@H](O)C6)c(F)c4)cc(c12)CCO3` (racemic) [Example 172] yielded an IC50 (MIA PaCa-2 cells; [3]) of 16.2 nM and an IC50 [1, 4] of 10.4 nM.

Work on `CC(O)[C@]1(C)CCCN1C/C=C/C(=O)Nc1c(F)cc(C(=O)c2cc3c4c(cccn24)-c2c(C(F)(F)F)cc4c(ncn4C)c2N(C)CC3)cc1F` (single isomer, unassigned) [Example 205] yielded an IC50 (MIA PaCa-2 cells; Table 3-1) of 8.55 nM and an IC50 [1, 4] of 29.5 nM.

Work on `Cn1cnc2c3c(c(C(F)(F)F)cc21)-c1cccn2c(C(=O)c4cc(F)c(NC(=O)/C=C/CN5CC[C@H]6CC[C@H](O)[C@H]65)c(F)c4)cc(c12)CCO3` (racemic) [Example 163] yielded an IC50 (MIA PaCa-2 cells; [3]) of 42.7 nM and an IC50 [1, 4] of 33.5 nM.

In the case of `Cn1cnc2c3c(c(C(F)(F)F)cc21)-c1cccn2c(C(=O)c4cc(F)c(NC(=O)/C=C/CN5C[C@H]6C[C@@H]5CO6)c(F)c4)cc(c12)CCO3` [Example 190, (E)-4-((1R,4R)-2-oxa-5-azabicyclo[2.2.1]heptan-5-yl)-N-(2,6-difluoro-4-(9-methyl-7-(trifluoro-methyl)-13,14-dihydro-9H-imidazo[4″,5″:5′,6′]-benzo[1′,2′:2,3]oxocino-[4,5,6-hi]indolizine-2-carbonyl)phenyl)but-2-enamide], the IC50 (MIA PaCa-2 cells; [3]) is reported as 9.08 nM and the IC50 [1, 4] is reported as 10.3 nM.

`COCc1nc2c3c(c(C(F)(F)F)cc2n1C)-c1cccc2c(C(=O)c4cc(F)c(NC(=O)/C=C/CNC5(C)COC5)c(F)c4)cn(c12)CCN3C` (single isomer, unassigned) [Example 97, (E)-N-(2,6-difluoro-4-(9-(methoxymethyl)-8,11-dimethyl-6-(trifluorometh-yl)-8,11,12,13-tetrahydro-imidazo[4″,5″:5′,6′]benzo-[1′,2′:5,6][1,4]diazocino-[7,8,1-hi]indole-2-carbon-yl)phenyl)-4-((3-methyl-oxetan-3-yl)amino)but-2-enamide] gave an IC50 (MIA PaCa-2 cells; [3]) of 7.91 nM and an IC50 [1, 5] of 30.4 nM.

Compound `CN1CCc2cc(C(=O)c3cc(F)c(NC(=O)/C=C/CN4CCCC4)c(F)c3)n3cccc(c23)-c2c(C(F)(F)F)cc3c(ncn3C)c21` [Example 226, (E)-N-(4-(9,12-dimethyl-7-(trifluoromethyl)-9,12,13,14-tetrahydro-imidazo[4″,5″:5′,6′]benzo-[1′,2′:2,3]azocino[4,5,6-hi]indolizine-2-carbonyl)-2,6-difluorophenyl)-4-(pyrrolidin-1-yl)but-2-enamide] has an IC50 (MIA PaCa-2 cells; [3]) of 13.5 nM and an IC50 [1, 4] of 63.3 nM.

Work on `CO[C@H]1CC[C@H](NC/C=C/C(=O)Nc2c(F)cc(C(=O)c3cn4c5c(cccc35)-c3c(C)cc5c(nc(C)n5C)c3OCC4)cc2F)CC1` (single isomer, unassigned) [Example 14-1, (E)-N-(2,6-difluoro-4-(6,8,9-trimethyl-12,13-dihydro-8H-imidazo[4″,5″:3′,4′]benzo[1′,2′:7,8][1,4]oxazocino[6,5,4-hi]indole-2-carbonyl)phenyl)-4-(((11,4r)-4-methoxycyclohexyl)amino)but-2-enamide] yielded an IC50 (MIA PaCa-2 cells; Table 3) of 17 nM and an IC50 ([1]; IC50, GMPPNP-bound KRAS G12C incubated with compound 25° C. 1 hour, Table 2) of 9 nM.

For `Cc1nc2c3c(c(C(F)(F)F)cc2n1C)-c1cccn2c(C(=O)c4ccc(NC(=O)/C=C/CNC5(C)COC5)c(F)c4)cc(c12)CCO3` [Example 68, (E)-N-(4-(9,10-dimethyl-7-(trifluoromethyl)-13,14-dihydro-9H-imidazo-[4″,5″:5′,6′]benzo[1′,2′: 2,3]oxocino[4,5,6-hi]-indolizine-2-carbonyl)-2-fluorophenyl)-4-((3-meth-yloxetan-3-yl)amino)but-2-enamide], the IC50 (MIA PaCa-2 cells; [3]) was 16.4 nM and the IC50 [1, 4] was 91.2 nM.

`Cc1cc2c(nc(C)n2C)c2c1-c1cccc3c(C(=O)c4cc(F)c(NC(=O)/C=C/CN5CCC[C@H]5CO)c(F)c4)cn(c13)CCN2C` [Example 114, (S,E)-N-(2,6-difluoro-4-(6,8,9,11-tetramethyl-8,11,12,13-tetrahydro-imidazo[4″,5″:5′,6′]benzo-[1′,2′:5,6][1,4]diazocino-[7,8,1-hi]indole-2-carbon-yl)phenyl)-4-(2-(hydroxy-methyl)pyrrolidin-1-yl)-but-2-enamide] showed an IC50 (MIA PaCa-2 cells; [3]) of 64.5 nM and an IC50 [1, 5] of 61.1 nM.

`Cc1nc2c3c(c(C(F)(F)F)cc2n1C)-c1cccn2c(C(=O)c4cc(F)c(NC(=O)/C=C/CNC5(C)COC5)c(F)c4)cc(c12)CCO3` (single isomer, unassigned) [Example 31-1, (E)-N-(4-(9,10-dimethyl-7-(trifluoromethyl)-13,14-dihydro-9H-imidazo[4″,5″:5′,6′]benzo[1′,2′:2,3]oxocino[4,5,6-hi]indolizine-2-carbonyl)-2,6-difluorophenyl)-4-((3-methyloxetan-3-yl)amino)but-2-enamide] gave an IC50 (MIA PaCa-2 cells; Table 3) of 7 nM and an IC50 [1, 2] of 11 nM.

`Cc1nc2c3c(c(C(F)(F)F)cc2n1C)-c1cccc2c(C(=O)c4cc(F)c(NC(=O)/C=C/CNC5(C)COC5)c(F)c4)cn(c12)CCO3` [Example 91] showed an IC50 (MIA PaCa-2 cells; [3]) of 8.68 nM and an IC50 [1, 5] of 27.2 nM.

Work on `CC(O)[C@]1(C)CCCN1C/C=C/C(=O)Nc1c(F)cc(C(=O)c2cc3c4c(cccn24)-c2c(C(F)(F)F)cc4c(ncn4C)c2N(C)CC3)cc1F` (single isomer, unassigned) [Example 204] yielded an IC50 (MIA PaCa-2 cells; Table 3-1) of 118 nM and an IC50 [1, 4] of 36.4 nM.

`CN1CCc2cc(C(=O)c3cc(F)c(NC(=O)C=CCNC4COCC4O)c(F)c3)n3cccc(c23)-c2c(C(F)(F)F)cc3c(ncn3C)c21` [Example 138, (E)-N-(4-(9,12-dimethyl-7-(trifluoromethyl)-9,12,13,14-tetrahydro-imidazo[4″,5″:5′,6′]benzo-[1′,2′:2,3]azocino[4,5,6-hi]indolizine-2-carbonyl)-2,6-difluorophenyl)-4-(((3R,4S)-4-hydroxytetra-hydrofuran-3-yl)amino)-but-2-enamide] was tested, and the IC50 (MIA PaCa-2 cells; [3]) was 30.8 nM and the IC50 [1, 4] was 47.2 nM.
